The target of series [1] is T1, NAF-1 (Homo sapiens, UniProt Q8N5K1).
T1 construct: gene CISD2; soluble cytosolic part, residues 57-135; pET-28a+, E. coli BL21-RIL, Ni-agarose and size exclusion; [2Fe-2S] holo form; homodimer
T1 sequence (Q8N5K1 57-135): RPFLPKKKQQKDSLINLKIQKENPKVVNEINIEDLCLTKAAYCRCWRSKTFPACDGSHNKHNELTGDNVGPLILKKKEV
Briefly: isothermal titration calorimetry, one-site model. In kind it is binding. For orientation: ITC needs no label: the signal is the heat of the interaction.

For series [2], the target named is T2, mNT (mitoNEET) (Homo sapiens, UniProt Q9NZ45).
T2 construct: gene CISD1; soluble cytosolic part, residues 33-108; pET-28a+, E. coli BL21-RIL, Ni-agarose and size exclusion; [2Fe-2S] holo form; homodimer
T2 sequence (Q9NZ45 33-108): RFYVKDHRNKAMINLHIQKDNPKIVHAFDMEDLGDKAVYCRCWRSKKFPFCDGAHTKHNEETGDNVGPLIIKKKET
Briefly: isothermal titration calorimetry, one-site model. In kind it is binding.

Series [3] concerns the molecule itself. Description: crystal structure; co-crystallised with the small molecule M1 (3.3 mM, 5% DMSO), sitting drop, 32% PEG-3000, 100 mM Tris-HCl pH 8.0, 100 mM NaCl, 20 °C; two molecules (mNT) or two dimers (NAF-1) in the asymmetric unit.

With `O=C(Nc1scc(C2CCc3ccccc3C2)c1C(=O)O)c1ccccc1` (racemic) [M1], the Kd in series [1] was determined as 7.2 ± 0.99 µM; in series [2], 5.93 ± 0.53 µM.

B1: mitoNEET soluble part (residue 33-108) (domain or fragment, human, UniProt Q9NZ45 33-108, looked up)
chain: T2 sequence (Q9NZ45 33-108)
notes: mitoNEET (mNT), human NEET protein, soluble part, residues 33-108; Each monomer carries a [2Fe-2S] cluster; Crystallised with the small molecule M1; also called mNT; source: Escherichia coli BL21-RIL, purified (Ni-agarose, size exclusion chromatography)
As for B1, the binding result in series [3] is recorded as “binds”.

B2: NAF-1 soluble part (residue 57-135) (domain or fragment, human, UniProt Q8N5K1 57-135, looked up)
chain: T1 sequence (Q8N5K1 57-135)
notes: NAF-1, human NEET protein encoded by CISD2, soluble part, residues 57-135; Each monomer carries a [2Fe-2S] cluster; Crystallised with the small molecule M1; source: Escherichia coli BL21-RIL, purified (Ni-agarose, size exclusion chromatography)
On to B2, for which the binding result in series [3] is listed as “binds”.

As usually defined, the Kd is a measure of binding affinity in units of concentration. Low readings indicate higher affinity, high ones lower affinity.

The values are drawn from paper PMC9090738, “An anti-diabetic drug targets NEET (CISD) proteins through destabilization of their [2Fe-2S] clusters” (Communications Biology, 2022).
